Among the data in patent US20140296064A1, “PESTICIDAL METHODS USING SUBSTITUTED 3-PYRIDYL THIAZOLE COMPOUNDS AND DERIVATIVES FOR COMBATING ANIMAL PESTS I” (BASF SE, priority 2011, published 2014) are mortality values, retold here.

Format in all cases: in vivo
Assay [1] concerns Green Peach Aphid (Myzus persicae). Kind of assay: Green peach aphid artificial diet test (systemic). The conditions noted are these: 72 h, in aphid diet under artificial membrane, assessed after 3 days, read-out: mortality in comparison with untreated controls. The source says: B.2 Green Peach Aphid (Myzus persicae)
For evaluating control of green peach aphid (Myzus persicae) through systemic means the test unit consisted of 96-well-microtiter plates containing liquid artificial diet under an artificial membrane.
The compounds were formulated using a solution containing 75% v/v water and 25% v/v DMSO. Different concentrations of formulated compounds were pipetted into the aphid diet, using a custom built pipetter, at two replications. After application, 5-8 adult aphids were placed on the artificial membrane inside the microtiter plate wells. The aphids were then allowed to suck on the treated aphid diet and were incubated at about 23±1° C. and about 50±5% relative humidity for 3 days. Aphid mortality and fecundity was then visually assessed.

The subject of assay [2] is Silverleaf Whitefly (bemisia argentifolii). Kind of assay: Silverleaf whitefly cotton plant spray test. The conditions noted are these: 72 h, cotton plants sprayed, whitefly adults, assessed 3 days after treatment, read-out: mortality in comparison with untreated controls. The source says: B.5 Silverleaf Whitefly (bemisia argentifolii)
The active compounds were formulated in cyclohexanone as a 10,000 ppm solution supplied in tubes. The tubes were inserted into an automated electrostatic sprayer equipped with an atomizing nozzle and they serve as stock solutions for which lower dilutions are made in 50% acetone: 50% water (v/v). A nonionic surfactant (Kinetic®) was included in the solution at a volume of 0.01% (v/v).
Cotton plants at the cotyledon stage (one plant per pot) were sprayed by an automated electrostatic plant sprayer equipped with an atomizing spray nozzle. The plants were dried in the sprayer fume hood and then removed from the sprayer. Each pot was placed into a plastic cup and about 10 to 12 whitefly adults (approximately 3-5 days old) were introduced. The insects were collected using an aspirator and a nontoxic Tygon® tubing connected to a barrier pipette tip. The tip, containing the collected insects, were then gently inserted into the soil containing the treated plant, allowing insects to crawl out of the tip to reach the foliage for feeding. Cups were covered with a reusable screened lid. Test plants were maintained in a growth room at about 25° C. and about 20-40% relative humidity for 3 days, avoiding direct exposure to fluorescent light (24 hour photoperiod) to prevent trapping of heat inside the cup. Mortality was assessed 3 days after treatment, compared to untreated control plants.

The test system of assay [3] is Cowpea Aphid (Aphis craccivora). Kind of assay: Cowpea aphid potted plant spray test. The conditions noted are these: potted cowpea plants sprayed, population reduction assessed after 24, 72 and 120 hours, read-out: mortality in comparison with untreated controls. The procedure:
B.4 Cowpea Aphid (Aphis craccivora)
The active compound was dissolved at the desired concentration in a mixture of 1:1 (vol:vol) distilled water: acetone. The test solution was prepared at the day of use.
Potted cowpea plants colonized with approximately 100-150 aphids of various stages were sprayed after the pest population had been recorded. Population reduction was assessed after 24, 72, and 120 hours.

Assay [4] concerns Vetch aphid (Megoura viciae). Kind of assay: Vetch aphid leaf disk spray test (contact or systemic). The conditions noted are these: foliar, 120 h, sprayed broad bean leaf disks, assessed after 5 days, read-out: mortality in comparison with untreated controls. The procedure: B.1 Vetch aphid (Megoura viciae)
For evaluating control of vetch aphid (Megoura viciae) through contact or systemic means the test unit consisted of 24-well-microtiter plates containing broad bean leaf disks.
The compounds were formulated using a solution containing 75% v/v water and 25% v/v DMSO. Different concentrations of formulated compounds were sprayed onto the leaf disks at 2.5 μl, using a custom built micro atomizer, at two replications. After application, the leaf disks were air-dried and 5-8 adult aphids were placed on the leaf disks inside the microtiter plate wells. The aphids were then allowed to suck on the treated leaf disks and were incubated at about 23±1° C. and about 50±5% relative humidity for 5 days. Aphid mortality and fecundity were then visually assessed.

In assay [5] the test system is Cotton aphid (Aphis gossypi). Kind of assay: Cotton aphid cotyledon dip test. Particulars: 120 h, cotton cotyledons dipped, mortality counts after 5 days, read-out: mortality in comparison with untreated controls. The source says:
B.3 Cotton aphid (Aphis gossypi)
The active compounds were formulated in 50:50 (vol:vol) acetone: water and 100 ppm Kinetica™ surfactant.
Cotton plants at the cotyledon stage (one plant per pot) were infested by placing a heavily infested leaf from the main colony on top of each cotyledon. The aphids were allowed to transfer to the host plant overnight, and the leaf used to transfer the aphids was removed. The cotyledons were dipped in the test solution and allowed to dry. After 5 days, mortality counts were made.

Take `CN(C)C(=O)c1sc(-c2cccnc2)nc1C(F)(F)F` [C.1, 2-Pyridin-3-yl-4-trifluoromethyl-thiazole-5-carboxylic acid dimethylamide]: the mortality at 500 ppm in assay [1], in assay [2] and in assay [3] was at least 75% throughout.
Consider `CSCCNC(=O)c1sc(-c2cccnc2)nc1C(F)(F)F` [C.2, 2-Pyridin-3-yl-4-trifluoromethyl-thiazole-5-carboxylic acid (2-methylsulfanyl-ethyl)amide], for which the mortality at 500 ppm in assay [1] and in assay [3] was at least 75% in each case. In addition, the mortality (usually the share of the test organisms that died) at 800 ppm in assay [4] is at least 75%.
For `CCN(CCSC)C(=O)c1sc(-c2cccnc2)nc1C(F)(F)F` [C.3, 2-Pyridin-3-yl-4-trifluoromethyl-thiazole-5-carboxylic acid ethyl-(2-methylsulfanyl-ethyl)-amide], the mortality at 500 ppm in assay [3] and in assay [5] was at least 75% throughout.
Take `CCN(CC[S+](C)[O-])C(=O)c1sc(-c2cccnc2)nc1C(F)(F)F` (centres unmarked) [C.4, 2-Pyridin-3-yl-4-trifluoromethyl-thiazole-5-carboxylic acid ethyl-(2-methanesulfinyl-ethyl)-amide]: the mortality at 500 ppm in assay [2] and in assay [3] was at least 75% in each case.
In the case of `CCN(CCS(C)(=O)=O)C(=O)c1sc(-c2cccnc2)nc1C(F)(F)F` [C.5, 2-Pyridin-3-yl-4-trifluoromethyl-thiazole-5-carboxylic acid ethyl-(2-methanesulfonyl-ethyl)-amide], the mortality at 500 ppm in assay [3] was at least 75%.
For the molecule `O=C(NC1CSC1)c1sc(-c2cccnc2)nc1C(F)(F)F` [C.6, 2-Pyridin-3-yl-4-trifluoromethyl-thiazole-5-carboxylic acid thietan-3-ylamide], the mortality at 800 ppm in assay [4] was at least 75%.
In the case of `CCN(C(=O)c1sc(-c2cccnc2)nc1C(F)(F)F)C1CSC1` [C.7, 2-Pyridin-3-yl-4-trifluoromethyl-thiazole-5-carboxylic acid ethyl-thietan-3-yl-amide], the mortality at 500 ppm in assay [2] and in assay [3] was at least 75% each time.
As for `CCN(C(=O)c1sc(-c2cccnc2)nc1C(F)(F)F)C1C[S+]([O-])C1` (centres unmarked) [C.8, 2-Pyridin-3-yl-4-trifluoromethyl-thiazole-5-carboxylic acid ethyl-(1-oxo-1lambda*4*-thietan-3-yl)-amide], the mortality at 500 ppm in assay [2] is at least 75%.
On to `CN(C)C(=O)c1sc(-c2cccnc2)nc1Cl` [C.11, 4-Chloro-N, N-dimethyl-2-(3-pyridyl)thiazole-5-carboxamide], for which the mortality at 500 ppm in assay [1], in assay [2], in assay [3] and in assay [5] was at least 75% in each case. The mortality at 800 ppm in assay [4] was at least 75%.
